Measurements reported in the Kinase Knowledgebase extract (Sharma et al. 2016).

Assays:
[1] = target: EGFR (mouse) (UniProt P00533); details: nih3t3/her14
[2] = target: EGFR (mouse) (UniProt P00533); details: nih3t3
[3] = target: EGFR (mouse) (UniProt P00533); details: nih3t3/neu

| Structure (SMILES) | IC50 [1] | IC50 [2] | IC50 [3] |
| --- | --- | --- | --- |
| COc1cc2ncnc(Nc3cccc(Cl)c3)c2cc1OC.Cn1nnc2c(C(N)=O)ncn2c1=O | 6.2 µM | 39.4 µM | 1.1 µM |
| Cn1nnc2c(C(N)=O)ncn2c1=O | 207 µM | 214 µM | 210 µM |
| CN(CO)N=Nc1ccc2ncnc(Nc3cccc(Br)c3)c2c1 | 2.1 µM |  | 0.09 µM |
| COc1cc2ncnc(Nc3cccc(Cl)c3)c2cc1OC | 9.8 µM |  | 4 µM |
| CNN=Nc1ccc2ncnc(Nc3cccc(C)c3)c2c1 | 28.9 µM |  | 16.5 µM |
| CC(=O)OCN(C)N=Nc1ccc2ncnc(Nc3cccc(Br)c3)c2c1 | 3.4 µM |  | 0.21 µM |
| CNN=Nc1ccc2ncnc(Nc3cccc(Br)c3)c2c1 | 8.8 µM |  | 0.09 µM |
| Nc1ccc2ncnc(Nc3cccc(Br)c3)c2c1 | 10.4 µM |  | 0.42 µM |
| CC(=O)N(C)N=Nc1ccc2ncnc(Nc3cccc(C)c3)c2c1 | 149 µM |  | 60.6 µM |
